Data on 27 compounds can be found in patent US20230339970A1, “CASEIN KINASE 1 DELTA MODULATORS” (priority 2020, published 2023).

One may read the IC50 as the concentration that inhibits the measured activity by half.

For one assay, the target named is T1, human CSNK1D (Homo sapiens, UniProt P48730).
T1 construct: expressed in transfected cells
Briefly: Whole Cell nBRET CSNK1D Binding Assay. The settings on record: living CHO cells stably expressing human CSNK1D tagged with nanoluciferase; NanoBret tracer 130 nM; 2 hours at 37 C.

Assay [1] deals with T2, human recombinant GST cleaved CSNK1D (Homo sapiens, UniProt P48730).
T2 construct: GST (cleaved yes); purchased University of Dundee clone DU 19064
Briefly: Purified Enzyme Assay (ADP-Glo CSNK1D Kinase Assay). Type of assay: biochemical. The settings on record: 2 nM CSNK1D; peptide substrate 150 μM; ATP 20 μM; 45 minutes at room temperature. In short, it runs like this:
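GST-cleaved human recombinant CSNK1D phosphorylates peptide PLSRTL-pS-VASLPGL with ATP; compounds added in dose-response, 45 min at room temperature. ADP formed measured by ADP-Glo luminescence and converted to percent activity.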

T2 sequence (P48730 whole entry): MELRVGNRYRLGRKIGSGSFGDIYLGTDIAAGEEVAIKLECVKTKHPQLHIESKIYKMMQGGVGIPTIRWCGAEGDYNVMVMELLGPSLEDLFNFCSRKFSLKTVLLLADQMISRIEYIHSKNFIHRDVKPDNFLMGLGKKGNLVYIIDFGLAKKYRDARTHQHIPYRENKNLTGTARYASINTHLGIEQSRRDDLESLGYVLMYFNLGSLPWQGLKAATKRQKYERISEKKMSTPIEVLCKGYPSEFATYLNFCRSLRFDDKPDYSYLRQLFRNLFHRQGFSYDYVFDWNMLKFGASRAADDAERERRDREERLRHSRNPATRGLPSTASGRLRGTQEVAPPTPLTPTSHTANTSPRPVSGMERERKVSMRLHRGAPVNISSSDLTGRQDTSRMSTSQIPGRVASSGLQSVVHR
T1 sequence (P48730 whole entry): as above

As for `Cn1cc2nccc(-c3c(-c4ccc(F)cn4)nn4c3COC(C)(C)C4)c2n1` [Example 138, 2-(5-Fluoropyridin-2-yl)-6,6-dimethyl-3-(2-methyl-2H-pyrazolo[4,3-b]pyridin-7-yl)-6,7-dihydro-4H-pyrazolo[5,1-c][1,4]oxazine], the half-maximal inhibitory concentration (IC50) at human CSNK1D is 999 nM; in assay [1], 106 nM.
On the same counts, the results for `CC1(C)Cn2nc(-c3ccc(F)cn3)c(-c3ccnc4cn[nH]c34)c2CO1` [Example 139, 2-(5-Fluoropyridin-2-yl)-6,6-dimethyl-3-(1H-pyrazolo[4,3-b]pyridin-7-yl)-6,7-dihydro-4H-pyrazolo[5,1-c][1,4]oxazine] are > 10000 nM and 450 nM.
On the same counts, the results for `CC1(C)Cn2nc(-c3ccc(F)cn3)c(-c3ccn4nccc4c3)c2CO1` [Example 140, 2-(5-Fluoropyridin-2-yl)-6,6-dimethyl-3-(pyrazolo[1,5-a]pyridin-5-yl)-6,7-dihydro-4H-pyrazolo[5,1-c][1,4]oxazine] are 122 nM and 18 nM.
On the same counts, the results for `CCn1ncc2cc(-c3c(-c4ccc(F)cn4)nn4c3COC(C)(C)C4)cnc21` [Example 141, 3-(1-Ethyl-1H-pyrazolo[3,4-b]pyridin-5-yl)-2-(5-fluoropyridin-2-yl)-6,6-dimethyl-6,7-dihydro-4H-pyrazolo[5,1-c][1,4]oxazine] are 5690 nM and 344 nM.
In the case of `CC1(C)Cn2nc(-c3ccc(F)cc3)c(-c3ccnc4[nH]ncc34)c2CO1` [Example 144, 2-(4-Fluorophenyl)-6,6-dimethyl-3-(1H-pyrazolo[3,4-b]pyridin-4-yl)-6,7-dihydro-4H-pyrazolo[5,1-c][1,4]oxazine], the IC50 came to 3 nM at human CSNK1D and 1 nM in assay [1].
On the same counts, the results for `Cc1cc(-c2c(-c3ccc(F)cc3)nn3c2COC(C)(C)C3)c2cn[nH]c2n1` [Example 145, 2-(4-Fluorophenyl)-6,6-dimethyl-3-(6-methyl-1H-pyrazolo[3,4-b]pyridin-4-yl)-6,7-dihydro-4H-pyrazolo[5,1-c][1,4]oxazine] are 4 nM and 1 nM.
For `CC1(C)Cn2nc(-c3ccc(Cl)cn3)c(-c3ccnc4[nH]ncc34)c2CO1` [Example 146, 2-(5-Chloropyridin-2-yl)-6,6-dimethyl-3-(1H-pyrazolo[3,4-b]pyridin-4-yl)-6,7-dihydro-4H-pyrazolo[5,1-c][1,4]oxazine], the values for the IC50 (at human CSNK1D; in assay [1]) were 359 nM and 18 nM, respectively.
On the same counts, the results for `CC1(C)Cn2nc(-c3ccc(F)cn3)c(-c3ccnc4[nH]ccc34)c2CO1` [Example 147, 2-(5-Fluoropyridin-2-yl)-6,6-dimethyl-3-(1H-pyrrolo[2,3-b]pyridin-4-yl)-6,7-dihydro-4H-pyrazolo[5,1-c][1,4]oxazine] are 11 nM and 1 nM.
On the same counts, the results for `CC1(C)Cn2nc(-c3ccc(F)cn3)c(-c3ccnc4[nH]cc(C#N)c34)c2CO1` [Example 148, 4-(2-(5-Fluoropyridin-2-yl)-6,6-dimethyl-6,7-dihydro-4H-pyrazolo[5,1-c][1,4]oxazin-3-yl)-1H-pyrrolo[2,3-b]pyridine-3-carbonitrile] are 3280 nM and 59 nM.
On the same counts, the results for `CC1(C)Cn2nc(-c3ccc(F)cn3)c(-c3ccnc4cc[nH]c34)c2CO1` [Example 149, 2-(5-Fluoro-2-pyridyl)-6,6-dimethyl-3-(1H-pyrrolo[3,2-b]pyridin-7-yl)-4,7-dihydropyrazolo[5,1-c][1,4]oxazine] are > 10000 nM and 1420 nM.
As for `CC1(C)Cn2nc(-c3ccc(F)cn3)c(-c3ccnc4[nH]nc(Br)c34)c2CO1` [Example 152, 3-(3-Bromo-1H-pyrazolo[3,4-b]pyridin-4-yl)-2-(5-fluoropyridin-2-yl)-6,6-dimethyl-6,7-dihydro-4H-pyrazolo[5,1-c][1,4]oxazine], the concentration for half-maximal inhibition (IC50) at human CSNK1D came out at 25 nM; in assay [1], 3 nM.
On the same counts, the results for `Cn1ncc2c(-c3c(-c4ccc(F)cn4)nn4c3COC(C)(C)C4)ccnc21` [Example 153, 2-(5-Fluoro-2-pyridyl)-6,6-dimethyl-3-(1-methylpyrazolo[3,4-b]pyridin-4-yl)-4,7-dihydropyrazolo[5,1-c][1,4]oxazine] are 3710 nM and 176 nM.
As to `Cc1cc(-c2c(-c3ccc(F)cn3)nn3c2COC(C)(C)C3)c2cn[nH]c2n1` [Example 154, 2-(5-Fluoro-2-pyridyl)-6,6-dimethyl-3-(6-methyl-1H-pyrazolo[3,4-b]pyridin-4-yl)-4,7-dihydropyrazolo[5,1-c][1,4]oxazine], the IC50 on human CSNK1D was 23 nM; in assay [1] it was 2 nM.
On the same counts, the results for `CC1(C)Cn2nc(-c3ccc(F)cn3)c(-c3cc(C4CC4)nc4[nH]ncc34)c2CO1` [Example 155, 3-(6-Cyclopropyl-1H-pyrazolo[3,4-b]pyridin-4-yl)-2-(5-fluoropyridin-2-yl)-6,6-dimethyl-6,7-dihydro-4H-pyrazolo[5,1-c][1,4]oxazine] are 172 nM and 8 nM.
On the same counts, the results for `Cc1cc(-c2c(-c3ccc(F)cn3)nn3c2COC(C)(C)C3)c2c(C)n[nH]c2n1` [Example 156, 3-(3,6-Dimethyl-1H-pyrazolo[3,4-b]pyridin-4-yl)-2-(5-fluoro-2-pyridyl)-6,6-dimethyl-4,7-dihydropyrazolo[5,1-c][1,4]oxazine] are 87 nM and 5 nM.
Consider `Cc1nc2[nH]ncc2c(-c2c(-c3ccc(F)cn3)nn3c2COC(C)(C)C3)c1F` [Example 157, 3-(5-Fluoro-6-methyl-1H-pyrazolo[3,4-b]pyridin-4-yl)-2-(5-fluoro-2-pyridyl)-6,6-dimethyl-4,7-dihydropyrazolo[5,1-c][1,4]oxazine], for which the half-maximal inhibitory concentration (IC50) on human CSNK1D was 72 nM; in assay [1] it was 8 nM.
As to `Cn1cc2c(-c3c(-c4ccc(F)cn4)nn4c3COC(C)(C)C4)ccnc2n1` [Example 158, 2-(5-Fluoro-2-pyridyl)-6,6-dimethyl-3-(2-methylpyrazolo[3,4-b]pyridin-4-yl)-4,7-dihydropyrazolo[5,1-c][1,4]oxazine], the half-maximal inhibitory concentration (IC50) at human CSNK1D is > 10000 nM; in assay [1], 6870 nM.
Consider `Cn1ncc2nccc(-c3c(-c4ccc(F)cn4)nn4c3COC(C)(C)C4)c21` [Example 159, 2-(5-Fluoropyridin-2-yl)-6,6-dimethyl-3-(1-methyl-1H-pyrazolo[4,3-b]pyridin-7-yl)-6,7-dihydro-4H-pyrazolo[5,1-c][1,4]oxazine], for which the concentration for half-maximal inhibition (IC50) at human CSNK1D was > 10000 nM; in assay [1], 1180 nM.
On the same counts, the results for `Cc1n[nH]c2nccc(-c3c(-c4ccc(F)cn4)nn4c3COC(C)(C)C4)c12` [Example 160, 2-(5-Fluoropyridin-2-yl)-6,6-dimethyl-3-(3-methyl-1H-pyrazolo[3,4-b]pyridin-4-yl)-6,7-dihydro-4H-pyrazolo[5,1-c][1,4]oxazine] are 143 nM and 9 nM.
In the case of `COc1cccc(-c2nn3c(c2-c2ccnc4[nH]ncc24)COC(C)(C)C3)n1` [Example 161, 2-(6-Methoxypyridin-2-yl)-6,6-dimethyl-3-(1H-pyrazolo[3,4-b]pyridin-4-yl)-6,7-dihydro-4H-pyrazolo[5,1-c][1,4]oxazine], the figures for the half-maximal inhibitory concentration (IC50) (on human CSNK1D; in assay [1]) were 1400 nM and 26 nM, respectively.
On the same counts, the results for `CC1(C)Cn2nc(-c3ccncc3Cl)c(-c3ccnc4[nH]ncc34)c2CO1` [Example 162, 2-(3-Chloropyridin-4-yl)-6,6-dimethyl-3-(1H-pyrazolo[3,4-b]pyridin-4-yl)-6,7-dihydro-4H-pyrazolo[5,1-c][1,4]oxazine] are > 10000 nM and 143 nM.
On the same counts, the results for `Cc1nc(-c2nn3c(c2-c2ccnc4[nH]ncc24)COC(C)(C)C3)ccc1Cl` [Example 163, 2-(5-Chloro-6-methylpyridin-2-yl)-6,6-dimethyl-3-(1H-pyrazolo[3,4-b]pyridin-4-yl)-6,7-dihydro-4H-pyrazolo[5,1-c][1,4]oxazine] are 1920 nM and 59 nM.
On the same counts, the results for `Cc1nc(-c2nn3c(c2-c2ccnc4[nH]ncc24)COC(C)(C)C3)ccc1F` [Example 164, 2-(5-Fluoro-6-methylpyridin-2-yl)-6,6-dimethyl-3-(1H-pyrazolo[3,4-b]pyridin-4-yl)-6,7-dihydro-4H-pyrazolo[5,1-c][1,4]oxazine] are 165 nM and 9 nM.
`CC1(C)Cn2nc(-c3c(F)cncc3F)c(-c3ccnc4[nH]ncc34)c2CO1` [Example 165, 2-(3,5-Difluoropyridin-4-yl)-6,6-dimethyl-3-(1H-pyrazolo[3,4-b]pyridin-4-yl)-6,7-dihydro-4H-pyrazolo[5,1-c][1,4]oxazine]: the half-maximal inhibitory concentration (IC50) at human CSNK1D is 702 nM; in assay [1], 15 nM.
On the same counts, the results for `CC1(C)Cn2nc(-c3ncc(F)cc3F)c(-c3ccnc4[nH]ncc34)c2CO1` [Example 166, 2-(3,5-Difluoropyridin-2-yl)-6,6-dimethyl-3-(1H-pyrazolo[3,4-b]pyridin-4-yl)-6,7-dihydro-4H-pyrazolo[5,1-c][1,4]oxazine] are 102 nM and 7 nM.
On the same counts, the results for `Cc1cc(-c2c(-c3ncc(F)cc3F)nn3c2COC(C)(C)C3)c2cn[nH]c2n1` [Example 167, 2-(3,5-Difluoropyridin-2-yl)-6,6-dimethyl-3-(6-methyl-1H-pyrazolo[3,4-b]pyridin-4-yl)-6,7-dihydro-4H-pyrazolo[5,1-c][1,4]oxazine] are 91 nM and 3 nM.
On the same counts, the results for `COc1ccc2nccc(-c3c(-c4ccc(F)cn4)nn4c3COC(C)(C)C4)c2n1` [Example 168, 2-(5-Fluoropyridin-2-yl)-3-(6-methoxy-1,5-naphthyridin-4-yl)-6,6-dimethyl-6,7-dihydro-4H-pyrazolo[5,1-c][1,4]oxazine] are 836 nM and 19 nM.
